{"source": "patent US10507186B2", "about": "“Methods and compositions particularly for treatment of attention deficit disorder” (Purdue Pharma L.P., priority 2014, dated 2019)", "origin": "cited, not measured here", "key": {"[1]": {"tested_on": "ADHD symptoms in patients", "details": "long-acting lisdexamfetamine dimesylate"}}, "note": "Structures can show the parent of a compound that is named as a salt. Where two headings read alike, the source gives them in different places.", "data": [{"compound": "COC(=O)C(c1ccccc1)C1CCCCN1", "note": "(racemic) [Methylphenidate, dl-threo-methyl-2-phenyl-2-(2-piperidyl)acetate]", "values": [{"measurement": "degradation amount", "setting": "as the pH increases to 8.9", "result": "up to 100%"}, {"measurement": "stability", "setting": "in acidic solutions", "result": "relatively stable"}, {"measurement": "stability", "setting": "in basic solutions, hydrolysis of the methyl ester to the free acid", "result": "degraded extensively"}]}, {"compound": "COC(=O)C(c1ccccc1)C1CCCCN1", "note": "(stereo not drawn) [Methylphenidate hydrochloride]", "values": [{"measurement": "solubility", "setting": "in acetone", "result": "slightly soluble"}, {"measurement": "solubility", "setting": "in alcohol", "result": "soluble"}, {"measurement": "solubility", "setting": "in chloroform", "result": "slightly soluble"}, {"measurement": "solubility", "setting": "in methanol", "result": "freely soluble"}, {"measurement": "solubility", "setting": "in water", "result": "freely soluble"}]}, {"compound": "lisdexamfetamine dimesylate", "values": [{"measurement": "reported duration of action", "setting": "[1]", "result": "up to 14 hours"}]}]}
